Experimental data: PubChem BioAssay AID1963430 (Molecular Pharmacology Branch, DTP, NCI, 2024)
Each block holds one compound with its values, some of them ahead of it.

System: 521955-158-R2-J5-PDC complex spheroid growth, % test/control
Experiment: Anticancer human tumor 521955-158-R2-J5-PDC patient-derived pancreatic carcinoma cell line growth inhibition [Asc]
Conditions: for IC50: curve of first compound; for viability, T/C: stronger effect = lower value
Procedure, shortened: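 Tumor cells were grown as complex spheroids with human endothelial cells (HUVEC) and human mesenchymal stem cells as stroma. Agents were tested alone and in combination, in half-log steps down from the clinical Cmax, or from 10 microM where Cmax was unknown.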
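Also: spheroids exposed to agents for 7 days before readout.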
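For viability, T/C in this document: 100% = DMSO vehicle control viability.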

- IC50 (second compound 0.01 µM): < 31.6 nM
- IC50 (second compound 0.0316 µM): < 31.6 nM
- IC50 (second compound 0.1 µM): < 31.6 nM
- IC50 (second compound 0.316 µM): < 31.6 nM
- IC50 (second compound 1 µM): < 31.6 nM
SMILES: C#Cc1c(F)ccc2cc(O)cc(-c3ncc4c(N5CC6CCC(C5)N6)nc(OCC56CCCN5CC(F)C6)nc4c3F)c12 (stereo not given) + CNC(C)C(=O)NC1CN(S(=O)(=O)c2cccc(S(=O)(=O)N3CCC4CCC(C(=O)NC(c5ccccc5)c5ccccc5)N4C(=O)C(NC(=O)C(C)NC)C3)c2)CCC2CCC(C(=O)NC(c3ccccc3)c3ccccc3)N2C1=O
- viability, T/C (second compound 0.01 µM, first compound 0.0316 µM): 22.8%
- viability, T/C (second compound 0.01 µM, first compound 0.1 µM): 22.5%
- viability, T/C (second compound 0.01 µM, first compound 0.316 µM): 20.6%
- viability, T/C (second compound 0.01 µM, first compound 1 µM): 16.3%
- viability, T/C (second compound 0.01 µM, first compound 3.16 µM): 19.2%
- viability, T/C (second compound 0.01 µM, first compound 10 µM): 18.2%
- viability, T/C (second compound 0.0316 µM, first compound 0.0316 µM): 20.3%
- viability, T/C (second compound 0.0316 µM, first compound 0.1 µM): 25.8%
- viability, T/C (second compound 0.0316 µM, first compound 0.316 µM): 19.4%
- viability, T/C (second compound 0.0316 µM, first compound 1 µM): 13.4%
- viability, T/C (second compound 0.0316 µM, first compound 3.16 µM): 17.7%
- viability, T/C (second compound 0.0316 µM, first compound 10 µM): 19.9%
- viability, T/C (second compound 0.1 µM, first compound 0.0316 µM): 22.1%
- viability, T/C (second compound 0.1 µM, first compound 0.1 µM): 16.6%
- viability, T/C (second compound 0.1 µM, first compound 0.316 µM): 21.6%
- viability, T/C (second compound 0.1 µM, first compound 1 µM): 15.7%
- viability, T/C (second compound 0.1 µM, first compound 3.16 µM): 18.3%
- viability, T/C (second compound 0.1 µM, first compound 10 µM): 17%
- viability, T/C (second compound 0.316 µM, first compound 0.0316 µM): 20.8%
- viability, T/C (second compound 0.316 µM, first compound 0.1 µM): 17.1%
- viability, T/C (second compound 0.316 µM, first compound 0.316 µM): 18.1%
- viability, T/C (second compound 0.316 µM, first compound 1 µM): 22.8%
- viability, T/C (second compound 0.316 µM, first compound 3.16 µM): 17.3%
- viability, T/C (second compound 0.316 µM, first compound 10 µM): 13.9%
- viability, T/C (second compound 1 µM, first compound 0.0316 µM): 21.6%
- viability, T/C (second compound 1 µM, first compound 0.1 µM): 18.7%
- viability, T/C (second compound 1 µM, first compound 0.316 µM): 27.5%
- viability, T/C (second compound 1 µM, first compound 1 µM): 26.6%
- viability, T/C (second compound 1 µM, first compound 3.16 µM): 19.7%
- viability, T/C (second compound 1 µM, first compound 10 µM): 16.8%

- IC50 (second compound 0.03 µM): < 31.6 nM
- IC50 (second compound 0.0949 µM): < 31.6 nM
- IC50 (second compound 0.3 µM): < 31.6 nM
- IC50 (second compound 0.949 µM): < 31.6 nM
- IC50 (second compound 3 µM): 4990 nM
SMILES: C#Cc1c(F)ccc2cc(O)cc(-c3ncc4c(N5CC6CCC(C5)N6)nc(OCC56CCCN5CC(F)C6)nc4c3F)c12 (stereo not given) + CCN1C(C(=O)NC23CCC(C(=O)O)(CC2)CC3)C(c2cccc(Cl)c2F)C2(C(=O)Nc3cc(Cl)ccc32)C12CCCCC2
- viability, T/C (second compound 0.03 µM, first compound 0.0316 µM): 53%
- viability, T/C (second compound 0.03 µM, first compound 0.1 µM): 41.6%
- viability, T/C (second compound 0.03 µM, first compound 0.316 µM): 33.2%
- viability, T/C (second compound 0.03 µM, first compound 1 µM): 35.1%
- viability, T/C (second compound 0.03 µM, first compound 3.16 µM): 35.5%
- viability, T/C (second compound 0.03 µM, first compound 10 µM): 32%
- viability, T/C (second compound 0.0949 µM, first compound 0.0316 µM): 48.1%
- viability, T/C (second compound 0.0949 µM, first compound 0.1 µM): 39.8%
- viability, T/C (second compound 0.0949 µM, first compound 0.316 µM): 44.4%
- viability, T/C (second compound 0.0949 µM, first compound 1 µM): 38%
- viability, T/C (second compound 0.0949 µM, first compound 3.16 µM): 41.7%
- viability, T/C (second compound 0.0949 µM, first compound 10 µM): 43.9%
- viability, T/C (second compound 0.3 µM, first compound 0.0316 µM): 45.9%
- viability, T/C (second compound 0.3 µM, first compound 0.1 µM): 44%
- viability, T/C (second compound 0.3 µM, first compound 0.316 µM): 39.9%
- viability, T/C (second compound 0.3 µM, first compound 1 µM): 40.4%
- viability, T/C (second compound 0.3 µM, first compound 3.16 µM): 42.9%
- viability, T/C (second compound 0.3 µM, first compound 10 µM): 39.2%
- viability, T/C (second compound 0.949 µM, first compound 0.0316 µM): 42.7%
- viability, T/C (second compound 0.949 µM, first compound 0.1 µM): 50.6%
- viability, T/C (second compound 0.949 µM, first compound 0.316 µM): 56.3%
- viability, T/C (second compound 0.949 µM, first compound 1 µM): 41.1%
- viability, T/C (second compound 0.949 µM, first compound 3.16 µM): 54.8%
- viability, T/C (second compound 0.949 µM, first compound 10 µM): 42.4%
- viability, T/C (second compound 3 µM, first compound 0.0316 µM): 70.1%
- viability, T/C (second compound 3 µM, first compound 0.1 µM): 68.9%
- viability, T/C (second compound 3 µM, first compound 0.316 µM): 66%
- viability, T/C (second compound 3 µM, first compound 1 µM): 59.1%
- viability, T/C (second compound 3 µM, first compound 3.16 µM): 55.1%
- viability, T/C (second compound 3 µM, first compound 10 µM): 43.8%
